In the NIST ThermoML archive (doi:10.1007/s10765-015-1981-5):

Assay: xn = mol fraction of the nth substance listed
Conditions: Gas, Loschmidt cell combine with holographic interferometry

[He] [helium] + CCC
binary diffusion coefficient [m2/s], x2 = 0.5
Conditions	293.15 K	313.15 K	333.15 K
100 kPa	3.9e-05	4.36e-05	–
200 kPa	1.95e-05	2.18e-05	2.4e-05

[He] [helium] + N
binary diffusion coefficient [m2/s], x1 = 0.5
Conditions	293.15 K	313.15 K	333.15 K	353.15 K
100 kPa	7.36e-05	–	–	–
200 kPa	3.7e-05	4.1e-05	–	–
500 kPa	1.46e-05	1.65e-05	–	–
800 kPa	8.96e-06	1.02e-05	1.13e-05	1.26e-05

[Kr] [krypton] + [He]
binary diffusion coefficient [m2/s], x1 = 0.5
Conditions	293.15 K	313.15 K	333.15 K	353.15 K
100 kPa	6.19e-05	7.04e-05	–	–
200 kPa	3.12e-05	3.48e-05	3.84e-05	4.25e-05
500 kPa	1.25e-05	1.34e-05	1.55e-05	1.71e-05
1000 kPa	6.18e-06	6.94e-06	7.7e-06	8.54e-06

[N-]=[N+]=O [nitrous oxide] + N#N
binary diffusion coefficient [m2/s], x2 = 0.5
Conditions	293.15 K	313.15 K	333.15 K	353.15 K
100 kPa	1.53e-05	1.76e-05	–	–
200 kPa	7.9e-06	8.98e-06	–	–
500 kPa	3.14e-06	3.55e-06	4.28e-06	–
1000 kPa	1.56e-06	1.77e-06	1.98e-06	2.24e-06

[Xe] [xenon] + [Ar]
binary diffusion coefficient [m2/s], x2 = 0.5
Conditions	100 kPa	200 kPa	500 kPa	1000 kPa
293.15 K	3.12e-05	1.56e-05	6.29e-06	3.12e-06
313.15 K	3.5e-05	1.75e-05	7.02e-06	3.48e-06
333.15 K	3.88e-05	1.94e-05	7.76e-06	3.88e-06
